Counter-ions that a name gives are not always drawn.
Assays:
[1] = Biodistribution of 99mTc-Compound 2 in naive rats; set-up: species or system Male Sprague-Dawley rats; details: rat
Description: Male Sprague-Dawley rats (231±10 g) were group housed in batches of four, with ad libitum access to food and water. […] At various times post injection (2, 30, 60 and 120 minutes) animals were euthanised (n=3 per timepoint), dissected.
Data above are presented as % injected dose (mean±SD; n=3 animals per timepoint).

[2] = Metabolism study of Compound 2 in naive rats (plasma, HPLC); type: in vivo, male rats
Description: The in vivo metabolic profile of Compound 2 was determined after intravenous administration to male rats. Post mortem blood was obtained at 60 minutes post injection and centrifuged to separate plasma.
Analysis was carried out by HPLC with prior extraction of Compound 2 from plasma using solid phase extraction (HLB cartridges; Waters). Briefly, cartridges were conditioned with 5 ml, acetonitrile, followed by 2×5 mL water. Plasma was loaded onto the cartridge and then washed with water (2% acetonitrile). Compound 2 was eluted from the cartridge with 7.5 mL water (0.1% TFA) with acetonitrile (0.1% TFA) as a 50:50 ratio.
The extract was evaporated to dryness and reconstituted in 2 mL starting mobile phase (4% acetonitrile (0.1% TFA) and water (0.1% TFA).
0.5 mL of the reconstituted extract anlaysed by HPLC using the same analytical conditions as mentioned above in Example 3 for Compound 2.

recombinant human FAP = target: T1, recombinant human FAP (Homo sapiens, UniProt Q12884); assay: FAP assay kit (BPS Bioscience), inhibition of enzymatic activity, Gly-Pro-AMC fluorogenic substrate; type: biochemical; details: for IC50: recombinant human FAP, 30 min, 22° C
T1 construct: purchased BPS Bioscience
T1 sequence (Q12884 1-760): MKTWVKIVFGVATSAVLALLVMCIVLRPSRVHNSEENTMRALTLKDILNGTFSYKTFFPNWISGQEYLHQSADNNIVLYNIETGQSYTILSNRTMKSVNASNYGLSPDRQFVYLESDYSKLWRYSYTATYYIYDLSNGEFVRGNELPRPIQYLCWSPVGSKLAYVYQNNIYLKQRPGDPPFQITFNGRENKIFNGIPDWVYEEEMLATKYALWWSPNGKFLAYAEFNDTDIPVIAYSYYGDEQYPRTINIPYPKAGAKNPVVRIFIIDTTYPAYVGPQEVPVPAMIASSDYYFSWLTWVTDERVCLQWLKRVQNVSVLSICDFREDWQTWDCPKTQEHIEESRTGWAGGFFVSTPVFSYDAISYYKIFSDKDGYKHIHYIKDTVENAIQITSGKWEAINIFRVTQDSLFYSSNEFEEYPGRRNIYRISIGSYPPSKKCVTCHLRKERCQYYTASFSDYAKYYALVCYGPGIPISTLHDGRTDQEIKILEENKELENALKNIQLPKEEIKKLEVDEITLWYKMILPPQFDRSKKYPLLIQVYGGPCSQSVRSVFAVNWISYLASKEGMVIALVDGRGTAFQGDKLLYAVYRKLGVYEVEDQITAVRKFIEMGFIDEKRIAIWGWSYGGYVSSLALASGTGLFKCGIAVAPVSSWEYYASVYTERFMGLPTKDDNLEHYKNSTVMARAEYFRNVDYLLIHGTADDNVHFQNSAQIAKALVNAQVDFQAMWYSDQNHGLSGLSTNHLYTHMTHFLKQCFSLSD
Description: (§1) The assay uses the fluorogenic substrate Gly-Pro-Aminomethylcoumarin (AMC) to measure either FAP or DPP-IV activity.
(§2) The enzyme activities were assayed in a total volume of 100 uL for 10 min (DPP-IV) and 30 min (FAP) at 22° C. The inhibitors were dissolved in DMSO. IC50 values were computed using GraphPad Prism 4.

recombinant human DPP-IV = target: T2, recombinant human DPP-IV (Homo sapiens, UniProt P27487); assay: DPP-IV assay kit (BPS Bioscience), inhibition of enzymatic activity, Gly-Pro-AMC fluorogenic substrate; type: biochemical; details: 10 min, 22° C
T2 construct: purchased BPS Bioscience
Description: as §1, §2

T2 sequence (P27487 whole entry): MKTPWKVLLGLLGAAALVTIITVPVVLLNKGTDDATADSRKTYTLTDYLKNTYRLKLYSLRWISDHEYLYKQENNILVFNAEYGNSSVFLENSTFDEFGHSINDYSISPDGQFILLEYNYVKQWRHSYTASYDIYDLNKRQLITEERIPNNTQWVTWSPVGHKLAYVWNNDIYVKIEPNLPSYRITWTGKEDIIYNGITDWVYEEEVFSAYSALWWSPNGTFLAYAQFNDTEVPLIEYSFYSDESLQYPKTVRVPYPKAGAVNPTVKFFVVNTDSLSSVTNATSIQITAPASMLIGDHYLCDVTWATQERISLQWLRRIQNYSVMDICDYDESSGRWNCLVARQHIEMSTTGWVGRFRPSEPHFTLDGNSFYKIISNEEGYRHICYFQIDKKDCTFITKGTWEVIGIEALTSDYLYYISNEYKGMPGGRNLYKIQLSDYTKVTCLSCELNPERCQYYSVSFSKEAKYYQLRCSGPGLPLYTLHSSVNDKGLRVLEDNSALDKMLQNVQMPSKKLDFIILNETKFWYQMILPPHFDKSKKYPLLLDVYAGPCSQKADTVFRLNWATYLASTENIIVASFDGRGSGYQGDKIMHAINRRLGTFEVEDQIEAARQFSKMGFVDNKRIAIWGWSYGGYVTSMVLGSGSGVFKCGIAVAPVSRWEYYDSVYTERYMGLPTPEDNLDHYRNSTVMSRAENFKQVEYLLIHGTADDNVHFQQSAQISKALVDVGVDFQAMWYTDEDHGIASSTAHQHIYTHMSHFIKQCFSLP

Compound	IC50 (recombinant human FAP) [µM]	IC50 (recombinant human DPP-IV) [µM]	also measured
NCCNCC(CNCCN)CC(=O)NCCCCCC(=O)NCC(=O)N1CCC[C@H]1B(O)O [Compound 2, (R) (1-(2-(6-(4-((2-aminoethyl)amino)-3-(((2-aminoethyl)amino)methyl)butanamido)hexanamido)acetyl)pyrrolidin-2-yl)boronic acid]			biodistribution for in vivo imaging purposes (in words) [1]: good biodistribution; Compound 2 still present in the plasma sample ([2]; male rats, intravenous, plasma 60 minutes after injection): Approximately 80%; in vivo metabolic profile (in words) ([2]; rat, in vivo): good in vivo metabolic profile
N#Cc1ccc(NCCNCC(=O)N2CCCC2C#N)nc1 (centres unmarked) [DPP-IV reference, NVP DPP 728 hydrochloride, reference compound]	> 100		
O=C(NCC(=O)N1CCC[C@H]1B(O)O)c1cccc2ccccc12 [FAP reference, (R)-(1-(2-(1-naphthamido)acetyl)pyrrolidin-2-yl)boronic acid, reference compound]		> 50	
(R)-(1-(2-(6-(4-((2-aminoethyl)amino)-3-(((2-aminoethyl)amino)methyl)butanamido)hexanamido)acetyl)pyrrolidin-2-yl)boronic acid, dioxorhenium(V)salt [Compound 1]	0.009	> 50	affinity for FAP (in words) (recombinant human FAP; in vitro assay): high and selective affinity for FAP

Reference: patent US20150320892A1, “IMAGING FIBROSIS” (GE Healthcare Limited, priority 2012, published 2015)
